According to paper PMC8272044, “5-Phenoxy Primaquine Analogs and the Tetraoxane Hybrid as Antimalarial Agents” (Molecules, 2021):
Read-outs that look alike come from different tables or passages of the source.

Key:
hematin polymerization [1] = tested on: hematin polymerization; set-up: method as in PMID 10049273; conditions: literature value; read-out: IC50, hematin polymerization inhibition; cited from earlier work
P. falciparum 3D7 = experiment: In vitro blood antimalarial activity, malaria SYBR green I-based fluorescence (MSF) method; type: cell-based; conditions: Plasmodium falciparum; P. falciparum 3D7, blood stage, 48 h, mean ± SD of three biological repeats
Procedure: P. falciparum strain 3D7 (wild-type drug sensitive strain) was used in this study. This parasite was maintained continuously in vitro in human O+ erythrocytes (4% hematocrit) at 37 °C under 3% CO2 and 90% N2 in RPMI 1640 culture media (Life Technologies Limited, Paisley, UK) containing 2 mM L-Glutamine, 25 mM HEPES (Sigma), pH 7.4, 2g/L NaHCO3, 40 mg/L gentamicin, 0.37 mM hypoxanthine, and supplemented with 5 g/L Albumax I (Life Technologies, Grand Island, NY, USA). Every 3 to 4 days, the parasite culture was synchronized with 5% sorbitol and transferred into complete medium with uninfected erythrocytes. In vitro antimalarial activity was determined by using the malaria SYBR green I-based fluorescence (MSF) method. Briefly, 0.09 mL of cultured 1% ring-stage synchronized parasites and 2% hematocrit were transferred to individual wells of a standard 96-well microtiter plate and in vitro culture continued for 48 h, with 0.01 mL of compound at different concentration in each well. The compounds were first dissolved in DMSO and diluted with RPMI medium to 1% DMSO. The final concentration of DMSO in each well was 0.1%, which caused no effect on the parasite viability. Following 48 h, SYBR Green I solution (0.02 µL of 10,000X SYBR Green I/100 µL of buffer solution consisted of 20 mM Tris 20, pH 7.5, 5 mM EDTA, 0.008% w/v saponin and 0.08% v/v Triton X-100) was then added to each well, and fluorescence signals were measured by spectrofluorometer at ex485/em 535 nm. […] The result of each compound was normalized with control media for the overall background subtraction as 0% and untreated parasite with 0.1% DMSO as 100% control.

hematin polymerization [2] = experiment: Inhibition of hematin polymerization (heme polymerization assay); type: biochemical;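 on %Inh1: test concentrations in µM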;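 on %Inh2: test concentrations in µM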;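 on %Inh3: test concentrations in µM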
Procedure: The ability of the 5-phenoxy primaquine analogs to inhibit hematin polymerization was investigated using a protocol modified from the one described previously. […] After it was left standing for 15 min, Tween 20 (0.5 μM; Sigma) was added. […] The assay was performed in triplicate, and results were expressed as the percentage of inhibition relative to hemozoin formation in a negative control. The IC50 values were obtained from the sigmoidal dose–response curves using nonlinear regression curve fitting analyses with GraphPad Prism version 3.00 software. Each IC50 value is the result of at least three separate experiments.

[3] = Cytotoxicity by sulforhodamine B (SRB) colorimetric assay; type: cell-based, African green monkey; conditions: African green monkey, Vero cells (kidney fibroblasts); Vero cells, 72 h, SRB, mean ± SD of three repeats
Source text: (§1) A cytotoxicity test of selected analogs against African green monkey kidney fibroblast (Vero cells) was obtained from Bioassay Laboratory, BIOTEC, NSTDA, Thailand. They were maintained continuously in MEM/EBSS medium (Hyclone Laboratories Inc., South Logan, UT, USA), supplemented with 10% heated fetal bovine serum (GE Healthcare, PAA Laboratories GmbH, Pasching, Austria), 2.2 g/L Sodium bicarbonate (Emsure, Merck kGaA, Darmstadt, Germany), and 1% sodium pyruvate (Sigma). […] Then, the cells were fixed with 100 µL of 10% trichloroacetic acid (Sigma) at 4 °C for 45 min, washed, and dried at room temperature overnight. […] Finally, 200 µL of 10× Tris-base was added to each well to dissolve protein-bound dye. The OD was determined at a wavelength of 510 nm. The control media was used for overall background subtraction as 0% and untreated cells as 100% control without any cytotoxic effect. The IC50 value of each compound was determined from the dose–response curve.

[4] = tested on: African green monkey kidney fibroblast (Vero cells); experiment: as above; type: cell-based; conditions: Vero CC50 / P. falciparum 3D7 IC50
Source text: as §1

[5] = pH 5.0, mean ± SD of three independent repeats, read-out: IC50, inhibition of hemozoin-initiated hematin polymerization
[6] = primary data, repeat 1, read-out: IC50, heme polymerization inhibition, repeat 1
[7] = primary data, repeat 2, read-out: IC50, heme polymerization inhibition, repeat 2
[8] = primary data, repeat 3, read-out: IC50, heme polymerization inhibition, repeat 3

COc1cc(NC(C)CCCN)c2ncccc2c1 (stereo not shown) [PQ, primaquine bisphosphate, reference compound]
IC50 (hematin polymerization [1]): > 2500 µM | IC50 (P. falciparum 3D7): 11.3 ± 0.79 µM | %Inh1 (hematin polymerization [2]; conc 2, repeat 1): -2.08% | %Inh2 (hematin polymerization [2]; conc 2, repeat 2): 16.17% | %Inh3 (hematin polymerization [2]; conc 2, repeat 3): 4.69% | %Inh1 (hematin polymerization [2]; conc 10, repeat 1): -9.33% | %Inh2 (hematin polymerization [2]; conc 10, repeat 2): 8.67% | %Inh3 (hematin polymerization [2]; conc 10, repeat 3): 3.70% | %Inh1 (hematin polymerization [2]; conc 50, repeat 1): 12.67% | %Inh2 (hematin polymerization [2]; conc 50, repeat 2): -7.00% | %Inh3 (hematin polymerization [2]; conc 50, repeat 3): 5.24% | %Inh1 (hematin polymerization [2]; conc 100, repeat 1): 19.42% | %Inh2 (hematin polymerization [2]; conc 100, repeat 2): 22.96% | %Inh3 (hematin polymerization [2]; conc 100, repeat 3): 19.59% | %Inh1 (hematin polymerization [2]; conc 200, repeat 1): 46.18% | %Inh2 (hematin polymerization [2]; conc 200, repeat 2): 36.04% | %Inh3 (hematin polymerization [2]; conc 200, repeat 3): 39.63% | %Inh1 (hematin polymerization [2]; conc 400, repeat 1): 73.12% | %Inh2 (hematin polymerization [2]; conc 400, repeat 2): 80.96% | %Inh3 (hematin polymerization [2]; conc 400, repeat 3): 77.01% | IC50 (hematin polymerization [2]; [5]): 320 ± 12 µM | IC50 (hematin polymerization [2]; [6]): 313 µM | IC50 (hematin polymerization [2]; [7]): 310 µM | IC50 (hematin polymerization [2]; [8]): 337 µM

COc1cc(NC(C)CCCNCCCCOc2ccc(C3CCC4(CC3)OOC3(OO4)C4CC5CC(C4)CC3C5)cc2)c2ncccc2c1Oc1ccccc1 (stereo not shown) [compound 12, N^1-(4-(4-((1r,3r,5r,7r)-Dispiro[adamantane-2,3′-[1,2,4,5]tetraoxane-6′,1″-cyclohexan]-4″-yl)phenoxy)butyl)-N^4-(6-methoxy-5-phenoxyquinolin-8-yl)pentane-1,4-diamine]
CC50 at 72 h [3]: 17.3 ± 0.36 µM | SI, selectivity index = CC50 on Vero cells / IC50 in the blood stage [4]: 45.61 | IC50 (P. falciparum 3D7): 0.38 ± 0.11 µM | %Inh1 (hematin polymerization [2]; conc 2, repeat 1): 12.59% | %Inh2 (hematin polymerization [2]; conc 2, repeat 2): 16.51% | %Inh3 (hematin polymerization [2]; conc 2, repeat 3): 8.88% | %Inh1 (hematin polymerization [2]; conc 10, repeat 1): 19.10% | %Inh2 (hematin polymerization [2]; conc 10, repeat 2): 21.09% | %Inh3 (hematin polymerization [2]; conc 10, repeat 3): 14.14% | %Inh1 (hematin polymerization [2]; conc 50, repeat 1): 48.21% | %Inh2 (hematin polymerization [2]; conc 50, repeat 2): 49.80% | %Inh3 (hematin polymerization [2]; conc 50, repeat 3): 51.14% | %Inh1 (hematin polymerization [2]; conc 100, repeat 1): 82.20% | %Inh2 (hematin polymerization [2]; conc 100, repeat 2): 73.34% | %Inh3 (hematin polymerization [2]; conc 100, repeat 3): 64.09% | %Inh1 (hematin polymerization [2]; conc 200, repeat 1): 90.25% | %Inh2 (hematin polymerization [2]; conc 200, repeat 2): 95.79% | %Inh3 (hematin polymerization [2]; conc 200, repeat 3): 87.78% | %Inh1 (hematin polymerization [2]; conc 400, repeat 1): 106.35% | %Inh2 (hematin polymerization [2]; conc 400, repeat 2): 95.69% | %Inh3 (hematin polymerization [2]; conc 400, repeat 3): 97.20% | IC50 (hematin polymerization [2]; [5]): 66.9 ± 3.5 µM | IC50 (hematin polymerization [2]; [6]): 64.5 µM | IC50 (hematin polymerization [2]; [7]): 64.3 µM | IC50 (hematin polymerization [2]; [8]): 71.8 µM
